This note sets out measurements from ChEMBL document CHEMBL1201862, “PubChem BioAssay data set” (2004).

Experiment in all cases: NCI-60 cell line screen, 48 h
The subject of assay [1] is MDA-MB-435.
Assay [2] deals with UACC-257.
Assay [3] has as its system CCRF-CEM.
For assay [4], the system named is NCI-H226.
Assay [5] has as its system Hs-578T.
Assay [6] relates to OVCAR-3.
Assay [7] concerns PC-3.
The subject of assay [8] is A549.
In assay [9] the test system is SK-OV-3.
In assay [10] the test system is UACC-62.
The subject of assay [11] is COLO 205.
Assay [12] concerns A498.
Assay [13] relates to 786-0.
Assay [14] relates to SW-620.
Assay [15] concerns DU-145.
The subject of assay [16] is HCT-15.
The subject of assay [17] is RXF 393.
For assay [18], the system named is NCI-H522.
Assay [19] deals with HCT-116.
For assay [20], the system named is TK-10.

Each structure is given as a SMILES string.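 Grown in 96-well plates, cells were treated for 48 hours with each compound at five concentrations. Insufficient inhibition: endpoint recorded as highest concentration tested. GI50 marks 50% less growth.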 Active and inactive are the calls of the source. No stated cut-off is given here; in the data, active = GI50 up to about 1.1 µM and inactive = higher.

With `CC(CO)(CO)/N=C/c1cc(I)cc(I)c1O`, the GI50 in [1] is 13.5 µM (inactive); in assay [2] it was 20.9 µM (inactive); in assay [3], 9.98 µM (inactive); in assay [4] it was 16.4 µM (inactive); in assay [5], 23.6 µM (inactive); in [6] it was 9.79 µM (inactive). In addition, the GI50 in assay [7] is 14.2 µM (inactive); in [8], 54.8 µM (inactive); in [9] it was 13.6 µM (inactive); in assay [10] it was 16 µM (inactive); in [11], 17.8 µM (inactive); in assay [12], 26.5 µM (inactive). Also, the GI50 was 13.6 µM (inactive) in assay [13]; 22 µM (inactive) in assay [14]; 11.6 µM (inactive) in assay [15]; 9.33 µM in assay [16]; 10.9 µM (inactive) in [17]; 19.1 µM (inactive) in assay [18]. In addition, the GI50 is 14.8 µM (inactive) in assay [19] and 26 µM (inactive) in [20].

Take `CCOc1ccc(/N=C/C=C(\Cl)c2ccc3ccccc3c2)cc1`: the GI50 was 19.4 µM (inactive) in assay [1]; 15.9 µM (inactive) in assay [2]; 3.56 µM (inactive) in [3]; 22.4 µM (inactive) in assay [4]; 29.8 µM (inactive) in assay [5]; 15.2 µM (inactive) in assay [6]. In addition, the GI50 in assay [7] was 16.5 µM (inactive); in [8], 29.8 µM (inactive); in assay [9], 19.7 µM (inactive); in assay [10], 15.8 µM (inactive); in assay [11], 16.7 µM (inactive); in [12], > 58.3 µM (inactive). In addition, the GI50 in [13] is 12.8 µM (inactive); in [14], 7.33 µM (inactive); in assay [15], 16.7 µM (inactive); in assay [16], 13.7 µM; in assay [17], 15.3 µM (inactive); in assay [18], 19.5 µM (inactive). Moreover, the GI50 in assay [19] is 9.14 µM (inactive); in assay [20] it was 17.5 µM (inactive).
